Laboratory results taken from patent publication US4939133A, “N-substituted-2-hydroxy-α-oxo-benzeneacetamides and pharmaceutical compositions having activity as modulators of the arachidonic acid cascade” (Warner-Lambert Company, priority 1985, dated 1990).

Target: T1, 5-lipoxygenase (isolated human leukocytes) (Homo sapiens, UniProt P09917)
T1 construct: 5-Lipoxygenase Assay Using Isolated Human Leukocytes (5LOA2); endogenous in cells; host or cells: isolated human blood leukocytes, platelets removed
T1 sequence (P09917 1-674): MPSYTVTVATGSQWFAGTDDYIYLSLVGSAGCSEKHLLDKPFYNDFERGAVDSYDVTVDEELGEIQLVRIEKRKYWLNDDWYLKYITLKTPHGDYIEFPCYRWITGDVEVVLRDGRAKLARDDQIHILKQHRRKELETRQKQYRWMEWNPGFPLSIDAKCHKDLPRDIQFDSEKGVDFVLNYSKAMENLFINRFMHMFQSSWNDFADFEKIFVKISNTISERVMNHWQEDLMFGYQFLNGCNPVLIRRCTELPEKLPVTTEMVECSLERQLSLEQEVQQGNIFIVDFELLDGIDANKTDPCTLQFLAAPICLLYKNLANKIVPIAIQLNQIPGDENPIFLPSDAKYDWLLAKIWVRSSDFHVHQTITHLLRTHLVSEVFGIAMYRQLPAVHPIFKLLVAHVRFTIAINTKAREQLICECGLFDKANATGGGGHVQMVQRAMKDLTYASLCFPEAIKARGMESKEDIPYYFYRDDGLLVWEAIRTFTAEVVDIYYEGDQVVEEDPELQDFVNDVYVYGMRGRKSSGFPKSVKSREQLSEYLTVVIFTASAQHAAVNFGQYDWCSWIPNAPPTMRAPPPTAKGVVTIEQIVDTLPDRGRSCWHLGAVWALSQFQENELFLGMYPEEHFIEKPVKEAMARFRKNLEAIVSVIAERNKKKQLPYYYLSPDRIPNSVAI
Experiment: 5-Lipoxygenase Assay Using Isolated Human Leukocytes (5LOA2)
Type: cell-based
Experimental: 5-Lipoxygenase Assay Using Isolated Human Leukocytes (5LOA2)
The formation of 5-HETE in human leukocytes is considered a measure of 5-lipoxygenase activity. The protocol is described in the following.
Fresh heparinized or EDTA treated human blood is mixed with 6% dextran-3% dextrose in isotonic saline in the ratio 0.25 ml dextran solution per 1.0 ml blood. After mixing the blood is allowed to sit at room temperature for about 90 minutes while the RBC's settle. During this period, the plasma is removed with a plastic pipette to nalgens tubes.
The plasma is centrifuged at 800 rpm ([…]) on the Beckman Td-b refrigerated centrifuge to remove the platelets (which remain in the supernatant). The pellet, consisting of leukocytes and erythrocytes, is treated with 10 ml 0.87% ammonium chloride at room temperature for four minutes, lysing the red cells. At the end of four minutes the cells are diluted with a 2×volume of phosphate buffered saline, pH 7.4, and centrifuged for ten minutes. The cells are washed three times with the phosphate buffered saline. Any of the pelleted cell matter which is not easily resuspended is discarded during the washings --the material contains platelets (12-lipoxygenase activity).
After washing, the cells are resuspended in phosphate buffered saline containing 1.0 mM calcium and 0.5 mM magnesium. After counting the cells are diluted to 1.5-2.0×10^7 leukocytes per milliliter.
To each polypropylene reaction tube is added 0.48 ml leukocytes in Ca-Mg phosphate buffered saline, pH 7.4; 1-5 μl test compound dissolved in DMSO and buffer; or DMSO for control tubes.
The tubes preincubate at 37° C. for five minutes. […]
A portion of the ethanol solution is injected into the HPLC system for 5-HETE quantitation.
The HPLC system consists of Hewlett-Packard 1040A UV spectrophotometry system with an HP85 computer. […] Peaks are measured with a Hewlett Packard 3360A integrator. […] The flow is monitored at 235 nm for 5-HETE quatitation. […]

With O=C(Nc1ccc(CCc2ccc(Cl)c(Cl)c2)cc1)c1ccccc1O [Example 42] the “% Inhibition (5LOA2)” value (5LOA2, 2.00 E -5 M) was 30.9% and the “% Inhibition (5LOA2)” value (5LOA2, 5.00 E -6 M) was 21.1%.
